Results: patent US20100303903A1, “METHODS OF ENHANCING SELECTIVE SEROTONIN REUPTAKE INHIBITOR EFFECTS IN MAMMALS” (SHIRE LLC, priority 2009, published 2010)

What was measured:
[1] = test system: mouse; experiment: Behavioural despair test in the mouse (forced swim; duration of immobility and latency to immobility); format: in vivo, Male Rj: NMRI mice; details: for DURATION OF IMMOBILITY % change / LATENCY % change: (a) compared with vehicle control
Experimental: Male Rj: NMRI mice (Elevage Janvier, 53940 Le Genest-Saint-Isle, France) having a body weight of between 22 and 29 g were used in the study. The mice were stabilised for 5 days prior to assessment with free access to food and water. […] […] The control vehicle was distilled water. The substances were evaluated in comparison with the control vehicle and were administered dissolved in distilled water.
The method, which detects antidepressant activity, follows that described by Porsolt et al (Arch. Int. Pharmacodyn., 1977, 229, 327-336). Mice forced to swim in a situation from which they cannot escape rapidly become immobile. Antidepressants decrease the duration of immobility.
Mice were individually placed in a cylinder (height=24 cm; diameter=13 cm) containing 10 cm water (22° C.) from which they cannot escape. The mice were placed in the water for 6 minutes and the duration of immobility during the last 4 minutes was measured. The latency to the first bout of immobility was also recorded.
10 mice were studied per group. The test was performed blind.
L-lysine-d-amphetamine (Vyvanse) (8, 16 and 32 mg/kg) was administered 90 minutes before the test, alone or in combination and compared with a vehicle control group.
Imipramine (128 mg/kg p.o.), administered under the same experimental conditions, was used as a reference substance.
Data were analysed by comparing treated groups with vehicle control using unpaired Student's t tests. In addition, groups treated with combinations of substances were compared with groups administered appropriate substances alone using unpaired Student's t tests.
The mouse behavioural despair test is based on the observation that mice, when forced to swim in a situation from which there is no escape, after an initial period of vigorous activity will eventually cease to move altogether making only those movements necessary to keep the head above the water. This behavioural immobility is thought to indicate a state of despair in which the mice have learned that escape is impossible and have resigned themselves to the experimental conditions. This immobility is reduced by anti-depression treatments.

[2] = test system: mice; experiment: Light-dark box test of anxiety; format: in vivo; details: 16 and 32 mg/kg, alone
Source text: The light/dark test is based on the innate aversion of rodents to brightly/illuminated areas and on the spontaneous exploratory behaviour of rodents in response to mild stress, that is, novel environment and light. The test apparatus consists of a compartment box divided between a dark safe compartment and an illuminated aversive compartment.

[3] = Table 2, 128 mg/kg p.o. -60 min
[4] = Table 3, 128 mg/kg p.o. -90 min

## CN(C)CCCN1c2ccccc2CCc2ccccc21 [Imipramine]
[1]; [3]
  DURATION OF IMMOBILITY mean ± s.e.m.: 70.4 ± 21.4 s
  LATENCY mean ± s.e.m.: 243.6 ± 32.7 s
  DURATION OF IMMOBILITY % change: −67%
  LATENCY % change: +277%
[1]; [4]
  DURATION OF IMMOBILITY mean ± s.e.m.: 100.6 ± 23.5 s
  DURATION OF IMMOBILITY % change: −48%

## CN[C@H]1CC[C@@H](c2ccc(Cl)c(Cl)c2)c2ccccc21 [Sertraline, sertraline]
[1]; Table 3, 16 mg/kg p.o. -90 min
  DURATION OF IMMOBILITY mean ± s.e.m.: 162.7 ± 27.5 s
  DURATION OF IMMOBILITY % change: −16%

## C[C@@H](Cc1ccccc1)NC(=O)[C@@H](N)CCCCN [Vyvanse, N-[(1S)-1-methyl-2-phenylethyl]-L-lysinamide]
[1]; 16 and 32 mg/kg, alone
  antidepressant-like activity: presence of antidepressant-like activity
[1]; Table 2, 16 mg/kg p.o. -60 min
  DURATION OF IMMOBILITY mean ± s.e.m.: 173.6 ± 18.8 s
  LATENCY mean ± s.e.m.: 100.0 ± 21.3 s
  DURATION OF IMMOBILITY % change: −19%
  LATENCY % change: +55%
[1]; Table 2, 32 mg/kg p.o. -60 min
  DURATION OF IMMOBILITY mean ± s.e.m.: 160.3 ± 22.6 s
  LATENCY mean ± s.e.m.: 104.3 ± 18.2 s
  DURATION OF IMMOBILITY % change: −25%
  LATENCY % change: +61%
[1]; Table 3, 8 mg/kg p.o. -90 min
  DURATION OF IMMOBILITY mean ± s.e.m.: 208.0 ± 7.3 s
  DURATION OF IMMOBILITY % change: +7%
[1]; Table 3, 16 mg/kg p.o. -90 min
  DURATION OF IMMOBILITY mean ± s.e.m.: 176.8 ± 14.8 s
  DURATION OF IMMOBILITY % change: −9%
[1]; Table 3, 32 mg/kg p.o. -90 min
  DURATION OF IMMOBILITY mean ± s.e.m.: 123.1 ± 20.8 s
  DURATION OF IMMOBILITY % change: −37%
[2]
  anxiogenic activity: absence of any anxiogenic activity
